Laboratory results as given in patent US20260262643A1, “HERBICIDAL BENZOXAZINES” (FMC CORPORATION, priority 2022, published 2026).

Experiments:
[1] = test system: kochia; assay: Test A postemergence; type: in vivo, Bassia scoparia
Outline: (§1)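 Loam/sand soil; pre-em directed soil spray at planting, post-em spray at 1–2 leaf (2–10 cm). Compound in non-phytotoxic solvent + surfactant. Greenhouse 10 d; visual injury vs untreated, 0 = no effect, 100 = complete control.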

[2] = test system: goosegrass; assay: Test A preemergence; type: in vivo, Eleusine indica
Outline: as §1

[3] = test system: foxtail, giant; assay: Test A postemergence; type: in vivo, Setaria faberi
Outline: as §1

[4] = test system: foxtail, giant; assay: Test A preemergence; type: in vivo, Setaria faberi
Outline: as §1

[5] = test system: ragweed; assay: Test A preemergence; type: in vivo, Ambrosia artemisiifolia
Outline: as §1

[6] = test system: soybean; assay: Test A postemergence; type: in vivo, Glycine max
Outline: as §1

[7] = test system: corn; assay: Test A postemergence; type: in vivo, Zea mays
Outline: as §1

[8] = test system: oat, wild; assay: Test A postemergence; type: in vivo, Avena fatua
Outline: as §1

[9] = test system: kochia; assay: Test A preemergence; type: in vivo, Bassia scoparia
Outline: as §1

[10] = test system: ducksalad; assay: Test B flooded paddy test; type: in vivo, Heteranthera limosa; conditions: 250 g ai/ha, Flood, 13 days, 0 to 100 scale (0 no effect, 100 complete control)
Outline: (§2)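 Visual scores from 0 (no effect) to 100 (complete kill) were assigned 13 days after treatment by comparison with controls. Seedlings had been treated at two leaves by adding compound to floodwater standing 3 cm deep, kept at that level in the greenhouse.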

[11] = test system: pigweed, palmer; assay: Test A postemergence; type: in vivo, Amaranthus palmeri
Outline: as §1

[12] = test system: blackgrass; assay: Test A preemergence; type: in vivo, Alopecurus myosuroides
Outline: as §1

[13] = test system: wheat; assay: Test A preemergence; type: in vivo, Triticum aestivum
Outline: as §1

[14] = test system: ragweed; assay: Test A postemergence; type: in vivo, Ambrosia artemisiifolia
Outline: as §1

[15] = test system: horseweed; assay: Test A postemergence; type: in vivo, Erigeron canadensis
Outline: as §1

[16] = test system: soybean; assay: Test A preemergence; type: in vivo, Glycine max
Outline: as §1

[17] = test system: rice; assay: Test B flooded paddy test; type: in vivo, Oryza sativa; conditions: 250 g ai/ha, Flood, 13 days, 0 to 100 scale (0 no effect, 100 complete control)
Outline: as §2

[18] = test system: oat, wild; assay: Test A preemergence; type: in vivo, Avena fatua
Outline: as §1

[19] = test system: barnyardgrass; assay: Test B flooded paddy test; type: in vivo, Echinochloa crus-galli; conditions: 250 g ai/ha, Flood, 13 days, 0 to 100 scale (0 no effect, 100 complete control)
Outline: as §2

[20] = test system: pigweed, palmer; assay: Test A preemergence; type: in vivo, Amaranthus palmeri
Outline: as §1

[21] = test system: corn; assay: Test A preemergence; type: in vivo, Zea mays
Outline: as §1

[22] = test system: ryegrass, Italian; assay: Test A preemergence; type: in vivo, Lolium multiflorum
Outline: as §1

[23] = test system: galium; assay: Test A postemergence; type: in vivo, Galium aparine
Outline: as §1

[24] = test system: wheat; assay: Test A postemergence; type: in vivo, Triticum aestivum
Outline: as §1

[25] = test system: ryegrass, Italian; assay: Test A postemergence; type: in vivo, Lolium multiflorum
Outline: as §1

[26] = test system: blackgrass; assay: Test A postemergence; type: in vivo, Alopecurus myosuroides
Outline: as §1

[27] = test system: sedge, umbrella; assay: Test B flooded paddy test; type: in vivo, Cyperus difformis; conditions: 250 g ai/ha, Flood, 13 days, 0 to 100 scale (0 no effect, 100 complete control)
Outline: as §2

[28] = test system: goosegrass; assay: Test A postemergence; type: in vivo, Eleusine indica
Outline: as §1

[29] = 125 g ai/ha, postemergence, 10 days, 0 to 100 scale, 0 no effect, 100 complete control
[30] = 500 g ai/ha, postemergence, 10 days, visual injury, 0 to 100 scale (0 no effect, 100 complete control)
[31] = 125 g ai/ha, visual injury after 10 days, 0 to 100 scale, 0 is no effect, 100 is complete control
[32] = 500 g ai/ha, 0 to 100 scale (0 no effect, 100 complete control), 10 days
[33] = 125 g ai/ha, postemergence, 10 days, visual injury, 0 to 100 scale (0 no effect, 100 complete control)
[34] = 500 g ai/ha, Postemergence, 0 to 100 scale

## CCc1ncn(-c2ccc(CC)c(C(=O)N3C[C@H](C)Oc4c(Cl)cccc43)c2)n1 [Compound 95]
[1]; [29]
  Kochia plant response rating: 80
[1]; [30]
  Plant response rating, Kochia: 90
[2]; [31]
  Plant response rating, Goosegrass: 100
[2]; [32]
  Plant response rating, Goosegrass: 100
[3]; [29]
  Foxtail, Giant plant response rating: 90
[3]; [30]
  Plant response rating, Foxtail, Giant: 90
[4]; [31]
  Plant response rating, Foxtail, Giant: 100
[4]; [32]
  Plant response rating, Foxtail, Giant: 100
[5]; [31]
  Plant response rating, Ragweed: 0
[5]; [32]
  Plant response rating, Ragweed: 70
[6]; [29]
  Soybean plant response rating: 100
[6]; [30]
  Plant response rating, Soybean: 100
[7]; [29]
  Corn plant response rating: 60
[7]; [30]
  Plant response rating, Corn: 90
[8]; [29]
  Oat, Wild plant response rating: 70
[8]; [30]
  Plant response rating, Oat, Wild: 80
[9]; [31]
  Plant response rating, Kochia: 60
[9]; [32]
  Plant response rating, Kochia: 100
[10]
  Plant response rating, Ducksalad: 95
[11]; [29]
  Pigweed, Palmer plant response rating: 50
[11]; [30]
  Plant response rating, Pigweed, Palmer: 90
[12]; [31]
  Plant response rating, Blackgrass: 70
[12]; [32]
  Plant response rating, Blackgrass: 80
[13]; [31]
  Plant response rating, Wheat: 90
[13]; [32]
  Plant response rating, Wheat: 90
[14]; [29]
  Ragweed plant response rating: 0
[14]; [30]
  Plant response rating, Ragweed: 50
[15]; [29]
  Horseweed plant response rating: 0
[15]; [30]
  Plant response rating, Horseweed: 30
[16]; [31]
  Plant response rating, Soybean: 50
[16]; [32]
  Plant response rating, Soybean: 100
[17]
  Plant response rating, Rice: 0
[18]; [31]
  Plant response rating, Oat, Wild: 80
[18]; [32]
  Plant response rating, Oat, Wild: 90
[19]
  Plant response rating, Barnyardgrass: 65
[20]; [31]
  Plant response rating, Pigweed, Palmer: 90
[20]; [32]
  Plant response rating, Pigweed, Palmer: 100
[21]; [31]
  Plant response rating, Corn: 60
[21]; [32]
  Plant response rating, Corn: 100
[22]; [31]
  Plant response rating, Ryegrass, Italian: 100
[22]; [32]
  Plant response rating, Ryegrass, Italian: 100
[23]; [29]
  Galium plant response rating: 100
[23]; [30]
  Plant response rating, Galium: 100
[24]; [29]
  Wheat plant response rating: 40
[24]; [30]
  Plant response rating, Wheat: 80
[25]; [29]
  Ryegrass, Italian plant response rating: 60
[25]; [30]
  Plant response rating, Ryegrass, Italian: 100
[26]; [29]
  Blackgrass plant response rating: 80
[26]; [30]
  Plant response rating, Blackgrass: 90
[27]
  Plant response rating, Sedge, Umbrella: 98
[28]; [29]
  Goosegrass plant response rating: 80
[28]; [30]
  Plant response rating, Goosegrass: 90

## CC1CN(C(=O)c2cc(-n3cncn3)ccc2F)c2cccc(Cl)c2O1 (centres unmarked) [Compound 39]
[1]; [33]
  Plant response rating, Kochia: 30
[1]; [34]
  Plant response rating, Kochia: 60
[2]; [31]
  Plant response rating, Goosegrass: 90
[2]; [32]
  Plant response rating, Goosegrass: 100
[3]; [33]
  Plant response rating, Foxtail, Giant: 10
[3]; [34]
  Plant response rating, Foxtail, Giant: 90
[4]; [31]
  Plant response rating, Foxtail, Giant: 90
[4]; [32]
  Plant response rating, Foxtail, Giant: 100
[5]; [31]
  Plant response rating, Ragweed: 10
[5]; [32]
  Plant response rating, Ragweed: 20
[6]; [33]
  Plant response rating, Soybean: 100
[6]; [34]
  Plant response rating, Soybean: 100
[7]; [33]
  Plant response rating, Corn: 0
[7]; [34]
  Plant response rating, Corn: 70
[8]; [33]
  Plant response rating, Oat, Wild: 40
[8]; [34]
  Plant response rating, Oat, Wild: 90
[9]; [31]
  Plant response rating, Kochia: 0
[9]; [32]
  Plant response rating, Kochia: 50
[10]
  Plant response rating, Ducksalad: 0
[11]; [33]
  Plant response rating, Pigweed, Palmer: 20
[11]; [34]
  Plant response rating, Pigweed, Palmer: 40
[12]; [31]
  Plant response rating, Blackgrass: 0
[12]; [32]
  Plant response rating, Blackgrass: 60
[13]; [31]
  Plant response rating, Wheat: 0
[13]; [32]
  Plant response rating, Wheat: 30
[14]; [33]
  Plant response rating, Ragweed: 0
[14]; [34]
  Plant response rating, Ragweed: 60
[15]; [33]
  Plant response rating, Horseweed: 0
[15]; [34]
  Plant response rating, Horseweed: 20
[16]; [31]
  Plant response rating, Soybean: 30
[16]; [32]
  Plant response rating, Soybean: 70
[17]
  Plant response rating, Rice: 0
[18]; [31]
  Plant response rating, Oat, Wild: 0
[18]; [32]
  Plant response rating, Oat, Wild: 70
[19]
  Plant response rating, Barnyardgrass: 0
[20]; [31]
  Plant response rating, Pigweed, Palmer: 50
[20]; [32]
  Plant response rating, Pigweed, Palmer: 90
[21]; [31]
  Plant response rating, Corn: 0
[21]; [32]
  Plant response rating, Corn: 30
[22]; [31]
  Plant response rating, Ryegrass, Italian: 40
[22]; [32]
  Plant response rating, Ryegrass, Italian: 100
[23]; [33]
  Plant response rating, Galium: 90
[23]; [34]
  Plant response rating, Galium: 100
[24]; [33]
  Plant response rating, Wheat: 10
[24]; [34]
  Plant response rating, Wheat: 50
[25]; [33]
  Plant response rating, Ryegrass, Italian: 50
[25]; [34]
  Plant response rating, Ryegrass, Italian: 100
[26]; [33]
  Plant response rating, Blackgrass: 60
[26]; [34]
  Plant response rating, Blackgrass: 60
[27]
  Plant response rating, Sedge, Umbrella: 0
[28]; [33]
  Plant response rating, Goosegrass: 30
[28]; [34]
  Plant response rating, Goosegrass: 60
